Source: ChEMBL document CHEMBL5223063, “Recent advances in urea- and thiourea-containing compounds: focus on innovative approaches in medicinal chemistry and organic synthesis” (RSC Med Chem, 2021)

Columns and labels:
[1] = Oral bioavailability in rat; type: ADME, organism-based; conditions: in vivo
[2] = Permeability coefficient of the compound in human Caco-2 cells; type: ADME, cell-based; conditions: read-out: Kp
[3] = 1-Octanol/phosphate buffer partition coefficient, logP of the compound at pH 7.40; type: physicochemical; conditions: pH 7.4
[4] = Induction of anion transport in NaCl loaded POPC liposomes assessed transmembrane permeability by measuring chloride efflux by ion selective electrode
[5] = Dissociation constant, pKa of compound; type: physicochemical

logD [3]	EC50 [4]	Structure (SMILES)	other results
1.12		Cc1cccc(Nc2ccncc2S(=O)(=O)N/C(=C/[N+](=O)[O-])NC(C)C)c1	
0.86		Cc1cccc(Nc2ccncc2S(=O)(=O)NC(=NC#N)NC(C)C)c1	pKa [5]: 6
0.61		Cc1cccc(Nc2ccncc2S(=O)(=O)NC(=S)NC(C)C)c1	
0.45		Cc1cccc(Nc2ccncc2S(=O)(=O)NC(=O)NC(C)C)c1 [TORSEMIDE]	pKa [5]: 6.68

The remaining lines, values behind:

Structure (SMILES)	logD [3]	EC50 [4]	other results
COC(=O)C1=C(C)NC(C)=C(C(=O)OC)C1c1cccc(NC(=O)NCCCN2CCC(c3cccc(OC)c3)CC2)c1			bioavailability [1]: 0.1%; Papp [2]: 1.9 ×10⁻⁶ cm/s
O=c1c(Nc2cc(C(F)(F)F)cc(C(F)(F)F)c2)c(Nc2cc(C(F)(F)F)cc(C(F)(F)F)c2)c1=O		0.01 mol%	
FC(F)(F)c1cc(NC(=S)Nc2cc(C(F)(F)F)cc(C(F)(F)F)c2)cc(C(F)(F)F)c1		0.16 mol%	
COC(=O)C1=C(C)NC(C)=C(C(=O)OC)C1c1cccc(N/C(=N/C#N)NCCCN2CCC(c3cccc(OC)c3)CC2)c1			Papp [2]: 4.3 ×10⁻⁶ cm/s
O=C(Nc1cc(C(F)(F)F)cc(C(F)(F)F)c1)Nc1cc(C(F)(F)F)cc(C(F)(F)F)c1		0.3 mol%	
